According to patent publication US20260042854A1, “ANTI-GLP-1R ANTIBODIES AND USES THEREOF” (SCIWIND BIOSCIENCES USA CO., LTD, priority 2022, published 2026):

Experiments:
humanized GLP-1R mice = assay: IPGTT in humanized GLP-1R mice (exogenous GLP-1 added); format: in vivo, mouse; conditions: GLP-1 25 nmol/kg i.p. with glucose
Procedure: 10-week-old female humanized GLP-1R mice (25-28 g, Shanghai Model Organisms Center Inc.) were assigned into 5 groups, with 5 mice in each group, and each group was treated according to the scheme in Table 6. The antibody treatment groups were subcutaneously injected with antibody, while the other groups were subcutaneously injected with vehicle (PBS) once a week for 2 consecutive weeks. IPGTTs were performed one day after the administration. The first subcutaneous administration of the antibody was on Day 0, and the second subcutaneous administration was on Day 7.
The blood glucose levels of the mice before (0 min) and 15 min, 30 min, 60 min, 90 min, 120 min and 180 min after the administration of glucose were measured with blood glucose meter. The AUCs of the blood glucose-time curves of each mouse from 0 to 180 min were calculated with GraphPad Prism 9. […] Statistical differences were analyzed with One-way ANOVA. […]
10-week-old female humanized GLP-1R mice (25-28 g) were assigned into 5 groups, with 5 mice in each group, and each group was treated according to the scheme in Table 10. […] The blood glucose levels of the mice before (0 min) and 15 min, 30 min, 60 min, 90 min, 120 min and 180 min after the administration of glucose were measured with blood glucose meter. The AUCs of the blood glucose-time curves of each mouse were calculated with GraphPad Prism 9. […]

C57BL/6 mice = assay: IPGTT in C57BL/6 mice (exogenous GLP-1 added); format: in vivo, mouse; conditions: GLP-1 25.0 nmol/kg i.p. with glucose
Procedure: 7-9-week-old male C57BL/6 mice (22-26 g) were assigned into 5 groups, with 5 mice in each group, and the mice in each group were treated according to the scheme shown in Table 6. The antibody treatment groups were given a single subcutaneous injection, and were fasted for 18 hours after the administration. […] The blood glucose levels of the mice before (0 min) and 15 min, 30 min. 60 min, 90 min, 120 min and 180 min after the administration of glucose were measured with blood glucose meter. The AUCs of the blood glucose-time curves of each mouse from 0 to 180 min were calculated with GraphPad Prism 9. The blood glucose levels and the AUCs were shown in Mean±SEM and the differences among groups were compared. Statistical differences were analyzed with One-way ANOVA. […] The significance markers were not shown in the line chart since they would overlap and be difficult to distinguish.

Mouse GLP-1R = target: T1, Mouse GLP-1R (Mus musculus, UniProt O35659); assay: cAMP HTRF antagonism assay in HEK293 transfected with mouse GLP-1R; format: cell-based
T1 construct: expressed in transfected cells; host or cells: HEK293 (ATCC, CRL-1573)
T1 sequence (O35659 22-463): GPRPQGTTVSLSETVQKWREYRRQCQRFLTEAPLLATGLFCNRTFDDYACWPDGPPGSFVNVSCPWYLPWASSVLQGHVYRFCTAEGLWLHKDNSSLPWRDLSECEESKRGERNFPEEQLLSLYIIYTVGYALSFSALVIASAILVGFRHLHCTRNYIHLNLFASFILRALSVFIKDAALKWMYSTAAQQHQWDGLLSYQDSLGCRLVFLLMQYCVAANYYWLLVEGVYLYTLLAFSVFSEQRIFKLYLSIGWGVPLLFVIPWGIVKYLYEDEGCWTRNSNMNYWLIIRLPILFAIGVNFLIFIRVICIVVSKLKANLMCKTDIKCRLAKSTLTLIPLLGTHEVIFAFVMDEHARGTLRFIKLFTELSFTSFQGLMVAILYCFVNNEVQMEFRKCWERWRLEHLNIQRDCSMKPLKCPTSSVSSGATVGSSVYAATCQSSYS
Procedure: HEK293 cells (ATCC, cat no. CRL-1573) were transfected with GLP-1R_pcDNA3.1/G418 (+) plasmids which can transcribe the mRNA of human (NM_002062.5), monkey (JN033215.1) and mouse (NM_021332.2) GLP-1R polypeptide. […] The plate was further incubated at 37° C. for 120 minutes. Finally, the CAMP level was measured with cAMP HTRF kit (Cisbio, 62AM4PEB). […] The data were analyzed by four-parameter curve fitting with GraphPad Prism 9, and IC50 was calculated.

Row | Substance | effect of GLP-1 on blood glucose levels (in words) (humanized GLP-1R mice) | effect of GLP-1 on blood glucose levels (in words) (C57BL/6 mice) | antagonism of activation of mouse GLP-1R by GLP-1 (in words) (Mouse GLP-1R)
1 | GLP-1: native GLP-1 (7-37aa, R&D Systems, cat no. 5374/1), agonist used to activate GLP-1R (HAEGTFTSDVSSYLEGQAAKEFIAWLVKGRG; Glucagon-like peptide 1(7-37); UniProt P01275 98-128, looked up) [reference compound] | can effectively lower the blood glucose levels | could lower blood glucose levels | 
2 | exendin 9-39 [Avexitide, reference compound] |  |  | does antagonize the activation of mouse GLP-1R by GLP-1
